Laboratory results reported in patent publication US6924301B1, “Composition for treating or preventing arrhythmia” (Shionogi & Co., Ltd., priority 1999, dated 2005).
Each block holds one compound with its values, some of them ahead of it.

Key:
cPLA2 = molecular target: T1, cPLA2 (Homo sapiens, UniProt P47712); experiment: cPLA2 inhibitory activity; format: biochemical; settings: for IC60: 0.25 h, Table 10, same assay
T1 sequence (P47712 1-749): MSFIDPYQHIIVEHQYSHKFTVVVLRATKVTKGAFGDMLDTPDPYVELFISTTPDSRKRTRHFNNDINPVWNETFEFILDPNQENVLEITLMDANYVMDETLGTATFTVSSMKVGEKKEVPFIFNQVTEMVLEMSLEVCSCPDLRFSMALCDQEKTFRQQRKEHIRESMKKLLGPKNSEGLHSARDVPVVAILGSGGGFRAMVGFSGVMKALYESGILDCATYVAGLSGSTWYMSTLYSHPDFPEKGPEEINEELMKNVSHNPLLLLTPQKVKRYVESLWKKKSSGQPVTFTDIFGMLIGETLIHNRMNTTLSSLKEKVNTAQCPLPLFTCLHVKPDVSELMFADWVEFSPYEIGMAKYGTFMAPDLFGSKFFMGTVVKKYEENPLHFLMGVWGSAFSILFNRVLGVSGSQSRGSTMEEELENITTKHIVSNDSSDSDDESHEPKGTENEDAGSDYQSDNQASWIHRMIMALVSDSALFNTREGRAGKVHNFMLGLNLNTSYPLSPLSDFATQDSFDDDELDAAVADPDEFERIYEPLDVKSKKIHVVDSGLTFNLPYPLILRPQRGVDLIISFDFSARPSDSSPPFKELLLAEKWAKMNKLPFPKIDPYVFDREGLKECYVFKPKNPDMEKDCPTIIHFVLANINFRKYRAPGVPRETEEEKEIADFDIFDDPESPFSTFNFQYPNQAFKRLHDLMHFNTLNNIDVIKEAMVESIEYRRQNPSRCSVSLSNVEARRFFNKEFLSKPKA
Description: The compounds of the present invention were tested for the cPLA2 inhibitory activity according to the method disclosed in […]. Roberts, […], and J. E. Putnam, J. Biol. Chem., 1991, 266, 5268-5272 as outlined below. […] The reaction mixture includes 50 mM HEPES buffer (pH 7.5), 1 mM calcium chloride, 150 mM sodium chloride, 0.1 mg/ml bovine serum albumin, and 1.7 mM dithiothreitol. To the reaction mixture was added the compound of the present invention and the substrate solution. The reaction was allowed to start by adding an enzyme and continued for 15 min at 37° C. The fatty acids released by the reaction were extracted by the method described in V. P. Dole, and H. Meinertz, J. Biol. Chem., 1960, 235, 2595-2599 and its radiation activity was measured on a liquid scintillation counter. Control was obtained by conducting the experiment in the same manner except that a compound of the present invention was not added.

Wistar male rats = experiment: Arrhythmia induced by ischemia-reperfusion (coronary ligation 3 min, 10 min reperfusion) in anesthetized rats; format: in vivo, rat; settings: for ventricular fibrillation / ventricular tachycardia: total duration during 10 min reperfusion, mean±S.D.; for effect on ventricular tachycardia induced by ischemia-reperfusion: summary in words of Tables 11 and 12, vs vehicle
Description: The utility of the present invention for treating or preventing arrhythmia was confirmed in a manner similar to that described in Circulation Research 56: 545-548, 1984.
Wistar male rats are used as experimental animals. Anesthesia of animal is induced by administration of 30 mg/kg to 60 mg/kg, preferably 40 mg/kg of pentobarbital sodium (preferably intraperitoneal injection). A catheter for the administration of drugs is placed in the jugular vein. Electrocardiogram (ECG) is recorded from lead II during cardiac ischemia and reperfusion. A thoracotomy is performed under artificial ventilation. Left coronary artery is ligated with silicon tube for 3 to 5 min, preferably 3 min. Reperfusion is performed by cutting snare. Total duration of ventricular tachycardia and ventricular fibrillation during 5 to 30 min, preferably 10 min reperfusion are evaluated. Test compounds are dissolved in solvent containing 10% DMSO, 10% ethanol, 30% polyethylene glycol and 50% distilled water and sodium hydrocarbonate is added to the solution to adjust final concentration to 0 to 1%, preferably 0.5%. Drugs are administrated intravenously in bolus at 15 to 60 min, preferably 30 min before reperfusion followed by 30 to 40 min, preferably 40 min infusion.
Wistar male rats (weight 250-350 g) were used. The compound (C-4) (the compound M-17 described in WO98/33797) and the compound (B-1) shown below were dissolved in solvent containing DMSO:ethanol:polyethylene glycol 300:1% aqueous sodium hydrogen carbonate solution=10:10:30:50 (volume ratio). Anesthesia was induced with intraperitoneal injection of 40 mg/kg of pentobarbital sodium. A catheter for the administration of drugs was placed in the jugular vein. Electrocardiogram (ECG) was recorded from lead II during cardiac ischemia and 10 min reperfusion. Drugs were administrated intravenously in bolus at 30 min before reperfusion followed by 40 min infusion. Solvent containing DMSO:ethanol:polyethylene glycol 300:1% aqueous sodium hydrogen carbonate solution=10:10:30:50 (volume ratio) was administrated as vehicle in a administration experiment. A thoracotomy was performed under artificial ventilation. Left coronary artery was ligated with silicon tube for 3 min. Reperfusion was performed by cutting snare. Total duration of ventricular tachycardia (VT) and ventricular fibrillation (VF) during 10 min reperfusion were evaluated.
Data are expressed as mean±S.D. Statistical analysis was performed with Welch's t-test. A value of P<0.05 was considered significant. Compound (C-4) [drawing 73]

[1] = Bolus (i.v.) + Infusion (i.v.) 0.001 mg/kg + 0.001 mg/kg/hr
[2] = Bolus (i.v.) + Infusion (i.v.) 0.01 mg/kg + 0.01 mg/kg/hr
[3] = Bolus (i.v.) + Infusion (i.v.) 0.1 mg/kg + 0.1 mg/kg/hr

- IC50 (cPLA2; 1-palmitoyl-2-[14C]-arachidonoyl-sn-glycero-3-phosphocholine liposomes, 15 min at 37° C.): 3.7 nM
- melting point: 158 to 160 °C
Compound: O=C1NC(=O)/C(=C/c2ccc(C(=O)NC[C@@H]3C[C@@H](SC(c4ccccc4)(c4ccccc4)c4ccccc4)CN3C(=O)c3ccccc3C(=O)c3ccc(F)cc3F)cc2)S1 [Compound B-1]
- ventricular fibrillation (Wistar male rats; [1]): 44.5 ± 133.3 s
- ventricular tachycardia (Wistar male rats; [1]): 54.8 ± 100.9 s
- ventricular fibrillation (Wistar male rats; [2]): 56.5 ± 169.5 s
- ventricular tachycardia (Wistar male rats; [2]): 31.1 ± 62.3 s
- ventricular fibrillation (Wistar male rats; [3]): 0.0 ± 0.0 s
- ventricular tachycardia (Wistar male rats; [3]): 0.4 ± 0.9 s
- effect on ventricular tachycardia induced by ischemia-reperfusion (Wistar male rats): significantly reduced

- IC60 (cPLA2): 0.36 nM
Compound: O=C(C=Cc1ccc(C=C2SC(=O)NC2=O)cc1)NCC1CC(SC(c2ccccc2)(c2ccccc2)c2cccc(F)c2)CN1C(=O)c1ccccc1C(=O)c1ccc(F)cc1F (stereo not drawn) [Compound B-24]

- IC60 (cPLA2): 0.43 nM
Compound: O=C(C=Cc1ccc(C=C2SC(=O)NC2=O)cc1)NCC1CC(SC(c2ccccc2)(c2ccccc2)c2ccc(F)cc2)CN1C(=O)c1ccccc1C(=O)c1ccc(F)cc1F (stereo not drawn) [Compound B-25]

- IC60 (cPLA2): 24 nM
Compound: O=C1NC(=O)/C(=C/c2ccc(C(=O)NC[C@@H]3C[C@@H](OCc4ccccc4-c4ccccc4)CN3C(=O)c3ccccc3C(=O)c3ccc(F)cc3F)s2)S1 [Compound C-1]

- IC60 (cPLA2): 3.8 nM
Compound: O=C(/C=C/c1ccc(/C=C2\SC(=O)NC2=O)cc1)NC[C@@H]1C[C@@H](Oc2ccccc2C(c2ccccc2)c2ccccc2)CN1C(=O)c1ccccc1C(=O)c1ccc(F)cc1F [Compound C-2]

- IC60 (cPLA2): 5.4 nM
Compound: O=C1NC(=O)/C(=C/c2ccc(/C=C/CNC(=O)[C@@H]3C[C@@H](SC(c4ccccc4)(c4ccccc4)c4ccccc4)CN3C(=O)c3ccccc3C(=O)c3ccc(F)cc3F)cc2)S1 [Compound C-3]

Compound: CC(C)CN(C(c1ccccc1)c1ccccc1)[C@@H]1C[C@@H](CNC(=O)c2ccc(/C=C3\SC(=O)NC3=O)cc2)N(C(=O)c2ccccc2C(=O)c2ccc(F)cc2F)C1 [Compound C-4]
- ventricular fibrillation (Wistar male rats; [1]): 15.1 ± 41.2 s
- ventricular tachycardia (Wistar male rats; [1]): 28.7 ± 50.3 s
- ventricular fibrillation (Wistar male rats; [2]): 1.6 ± 2.9 s
- ventricular tachycardia (Wistar male rats; [2]): 7.6 ± 9.4 s
- ventricular fibrillation (Wistar male rats; [3]): 0.2 ± 0.4 s
- ventricular tachycardia (Wistar male rats; [3]): 5.1 ± 9.3 s
- effect on ventricular tachycardia induced by ischemia-reperfusion (Wistar male rats): significantly reduced
